{"source": "patent US7183291B2", "about": "(Council of Scientific and Industrial Research, priority 1999, dated 2007)", "key": {"[1]": {"system": "P. cynomolgi B gametocytes", "test": "Gametocytocidal test: infectivity of gametocytes from treated P. cynomolgi infected Rhesus monkeys to An. stephensi mosquitoes", "assay_type": "in vivo", "description": "For the gametocytocidal test, batches of 3–4 day old An. Stephensi were allowed to feed on P. cynomolgi infected Rhesus monkeys at appropriate gametocytaemia level. […] […] Mosquitoes were maintained as 26±1° C. under optimal insectary conditions. The infectivity rate and the oocyst counts were recorded on day 8. Mosquitoes were further maintained in the insectary to record the formation of sporozoites and the absence of sporozoites in some of the batches was also ensured by inoculation of mosquito homogenates into native monkeys."}, "[2]": {"test": "Methaemoglobin levels in Beagle dogs after 7-day oral treatment", "description": "Colony bred beagle dogs were maintained in the kennel house of the Institute and fed with a standard diet.\nTreatment was administered once daily for seven doses (day 0–6), the day of the first dose being day 0. […] 5 ml. blood was collected from beagle dogs on day 0, 3, 7, 13 and 25 using potassium-oxalate crystals as anticoagulant. All the estimations/tests were conducted on the same day of collection of blood. Methaemoglobin was assayed by the method of Evelyn and Malloy (1938, J. Biol. Chem., 126, 655–662)."}, "normal erythrocytes": {"system": "normal erythrocytes", "test": "Reduced glutathione (GSH) in normal human erythrocytes after 3 h incubation", "assay_type": "cell-based", "source_text": "(§1) Drug induced haemolysis is a serious complication in persons deficient in G-6-PD enzyme. The presence of reduced glutathione (GSH) in erythrocytes control the level of oxidative metabolites. Therefore, drugs, which cause lesser oxidation of GSH level are safe. […] G-6-PD deficiency was detected by the fluorescent spot screening test and confirmed by the enzyme assay method. Heparinised blood samples were collected from each individual and after centrifugation, the packed cells were washed three times with cold saline. […] GSH levels were estimated by the method of Bentler et al [Improved Method for the Determination of Blood Glutathione, J. Lab."}, "[3]": {"system": "G-6-PD deficient erythrocytes", "test": "Reduced glutathione (GSH) in G-6-PD deficient human erythrocytes after 3 h incubation", "assay_type": "cell-based", "conditions": "25 and 50 μg/ml of PQ and equivalent doses, P<0.001", "source_text": "as §1"}, "rodent malaria [4]": {"system": "rodent malaria", "conditions": "in vivo; cited from earlier work"}, "rodent malaria [5]": {"system": "rodent malaria", "conditions": "in vivo; cited from earlier work", "remark": "listed apart in the source"}, "rodent malaria [6]": {"system": "rodent malaria", "conditions": "given directly to the insect; cited from earlier work"}, "[7]": {"conditions": "oral labelled primaquine; cited from earlier work"}, "[8]": {"conditions": "1.00 mg/kg at 0 hr, feeding +24 hr"}, "[9]": {"conditions": "1.00 mg/kg at 0 hr, feeding +48 hr"}, "[10]": {"conditions": "1.00 mg/kg at 0 hr, feeding −1 hr (pre-treatment)"}, "[11]": {"conditions": "3.16 mg/kg at 0 hr, feeding +24 hr"}, "[12]": {"conditions": "3.16 mg/kg at 0 hr, feeding −1 hr (pre-treatment)"}}, "note": "Where “and” joins values, the source holds several entries; their conditions need not be identical. Equal values may be shown once.", "data": [{"smiles": "COc1cc(NC(C)CCCN)c2ncccc2c1", "note": "(stereo not drawn) [Primaquine, 8-(4-amino-1-methylbutylamino)-6-methoxy quinoline, reference compound]", "values": [{"measurement": "loss of infectivity", "setting": "[1]; 1.00 mg/kg", "result": "~98", "unit": "%"}, {"measurement": "No. of mosquitoes infected/dissected", "setting": "[1]; 1.00 mg/kg at 0 hr, feeding +5 hr", "result": "32/44 and 36/46"}, {"measurement": "No. of mosquitoes infected/dissected", "setting": "[1]; [8]", "result": "0/55 and 3/45"}, {"measurement": "Parasitaemia/mm^3 Asexual", "setting": "[1]; [8]", "result": "28048 /mm^3 and 26832 /mm^3"}, {"measurement": "% infectivity", "setting": "[1]; [9]", "result": "(0) %"}, {"measurement": "No. of mosquitoes infected/dissected", "setting": "[1]; [9]", "result": "0/40"}, {"measurement": "Parasitaemia/mm^3 Asexual", "setting": "[1]; [9]", "result": "15332 /mm^3 and 12140 /mm^3"}, {"measurement": "oocyst no. per gut (Mean ± SD)", "setting": "[1]; [9]", "result": "Nil"}, {"measurement": "No. of mosquitoes infected/dissected", "setting": "[1]; [10]", "result": "25/34 and 32/40"}, {"measurement": "Parasitaemia/mm^3 Asexual", "setting": "[1]; [10]", "result": "42394 /mm^3 and 36166 /mm^3"}, {"measurement": "No. of mosquitoes infected/dissected", "setting": "[1]; 3.16 mg/kg at 0 hr, feeding +5 hr", "result": "0/53 and 15/46"}, {"measurement": "% infectivity", "setting": "[1]; [11]", "result": "(0) %"}, {"measurement": "No. of mosquitoes infected/dissected", "setting": "[1]; [11]", "result": "0/33 and 0/43"}, {"measurement": "Parasitaemia/mm^3 Asexual", "setting": "[1]; [11]", "result": "23112 /mm^3 and 21204 /mm^3"}, {"measurement": "Parasitaemia/mm^3 Gametocytes", "setting": "[1]; [11]", "result": "749 /mm^3 and 670 /mm^3"}, {"measurement": "oocyst no. per gut (Mean ± SD)", "setting": "[1]; [11]", "result": "Nil"}, {"measurement": "No. of mosquitoes infected/dissected", "setting": "[1]; [12]", "result": "37/51 and 20/47"}, {"measurement": "Parasitaemia/mm^3 Asexual", "setting": "[1]; [12]", "result": "29680 /mm^3 and 16824 /mm^3"}, {"measurement": "Parasitaemia/mm^3 Gametocytes", "setting": "[1]; [12]", "result": "1230 /mm^3 and 1026 /mm^3"}, {"measurement": "gametocytocidal action", "setting": "[1]; 3.16 mg/kg, +24 hr", "result": "complete gametocytocidal action"}, {"measurement": "increase of mean Met-Hb values over day 0", "setting": "[2]; Group I, 1.0 mg/kg, day 7", "result": 3.7, "unit": "fold"}, {"measurement": "increase of Met-Hb over corresponding day 0 value", "setting": "[2]; Group II, 3.0 mg/kg", "result": 10.5, "unit": "fold"}, {"measurement": "concentration at which fall in GSH levels reached statistical significance", "setting": "normal erythrocytes", "result": 10000, "unit": "ng/mL"}, {"measurement": "GSH (mg %) Mean ± SE", "setting": "normal erythrocytes; dose 1.00 μg/ml", "result": "43.50 ± 5.70", "unit": "mg %"}, {"measurement": "GSH (mg %) Mean ± SE", "setting": "normal erythrocytes; dose 5.00 μg/ml", "result": "39.00 ± 6.16", "unit": "mg %"}, {"measurement": "decrease in GSH level compared to controls", "setting": "[3]", "result": "statistically significant"}, {"measurement": "blood schizontocidal activity", "setting": "rodent malaria [4]", "result": "has blood schizontocidal activities"}, {"measurement": "gametocytocidal activity", "setting": "rodent malaria [5]", "result": "very potent gametocytocidal agent"}, {"measurement": "direct sporontocidal activity", "setting": "rodent malaria [6]", "result": "quite inactive"}, {"measurement": "radioactivity found in liver tissue", "setting": "[7]", "result": 45, "unit": "%"}]}]}
